We go through one molecule from patent US11833238B2, “Topical testosterone (T) for promoting hair growth-containing formulations” (priority 2012, dated 2023).

Structures are written as SMILES.

For data set [1] the following is noted: powder; cited from earlier work.
The subject of data set [2] is eyelash hair growth. Nature of the data set: appearance of lashes and hair around the eyes of glaucoma patients administering bimatoprost in only one eye (slit lamp biomicroscope). The following applies: 0.03% ophthalmic solution, more than 3 months, treated vs control eye. It is filed as in vivo, human. The protocol:
A study is initiated to systematically evaluate the appearance of lashes and hair around the eyes of patients who are administering bimatoprost in only one eye. The study involves 10 subjects, 5 male, 5 female, average age 70 years, (ranging from 50-94 years). All patients have glaucoma. Each subject is treated daily by the topical application of one drop of bimatoprost at a dosage of 1.5 µg/ml/eye/day (0.03%, by weight, ophthalmic solution, sold under the names Lumigan® and Latisse® by Allergan, Irvine, Calif., U.S.A.) to the region of one eye by instilling the drop onto the surface of the eye. The region of the fellow control eye is not treated with bimatoprost and served as a control.
In the course of treatment with eye drops, there is typically spontaneous tearing, and excess fluid from the drops and associated tears gathers at the lid margins. In the course of wiping the drug containing fluid from the lid margins and adjacent lid, a thin film of the fluid is routinely spread to contact the adjacent skin of the lid area.
The study is limited to subjects who have administered bimatoprost to one eye for more than 3 months. The mean duration of exposure to bimatoprost prior to assessing the parameter of lash growth between the control and study eye is 129 days (range 90-254 days). Observations are made under high magnification at the slit lamp biomicroscope. Documentation of differences between the control and treatment areas is accomplished using a camera specially adapted for use with the slit lamp biomicroscope. The results of the observations are as follows: Length of lashes: Increased length of eyelashes is regularly observed on the side treated with bimatoprost. The difference in length varies from approximately 10% to as much as 30%. […] In areas where there are a large number of lashes in the control eye, the increased number of lashes in the bimatoprost-treated eye gave the lashes on the treated side a more thickly matted overall appearance. […] These long, thick lash-like hairs were present in the central portion of the lids of several patients in a linear arrangement just above the lash line. Hairs are present at similar locations in the control eyes but are by contrast thinner or more fine in appearance, have less luster and pigment and are more flat against the skin of the lid typical of vellus or intermediate hairs. In several patients, lash-like terminal hairs grow luxuriantly in the medial canthal area in the treated eye. In the corresponding control eye, vellus hairs are seen at the same location. Lash-like hairs are also present in the lateral canthal area of the treated eye but not the control eye in several subjects. […]

With `CCNC(=O)CCC/C=C\C[C@@H]1[C@@H](/C=C/[C@@H](O)CCc2ccccc2)[C@H](O)C[C@@H]1O` [bimatoprost, (Z)-7-[(1R,2R,3R,5S)-3,5Dihydroxy-2-[(1E,3S)-3-hydroxy-5-phenyl-1-pentenyl]cyclopentyl]-5-N-ethylheptenamide], in data set [1], the “solubility in ethyl alcohol” value was “very soluble”, the “solubility in methyl alcohol” value is reported as “very soluble” and the solubility in water entry is “slightly soluble”. Also, in data set [2], the “Auxiliary lash-like hair growth” value is “apparent increase in lash-like hair in transitional areas adjacent to areas of normal lash distribution”; the Number of lashes result is given as “Increased numbers of lashes are observed in the treated eye of each patient”; the “Perpendicular angulation of hairs” value is listed as “leave the surface of the skin at a more acute angle”; the “growth of vellus hair on lids” value is “vellus hairs are increased in number, appear more robust and are much longer and thicker in treated than in control eyes”.
